Experimental data as given in US8338465B2, “Cyclic carboxylic acid rhodanine derivatives for the treatment and prevention of tuberculosis” (priority 2006, dated 2012).
pIC50: −log10 of the molar value. Where a name gives a salt, the structure may show the parent alone. Read-outs that look alike come from different tables or passages of the source.

Target: T1, dihydrolipoamide acyltransferase (DlaT) (Mycobacterium tuberculosis, UniProt P9WIS7)
T1 sequence (P9WIS7 1-553): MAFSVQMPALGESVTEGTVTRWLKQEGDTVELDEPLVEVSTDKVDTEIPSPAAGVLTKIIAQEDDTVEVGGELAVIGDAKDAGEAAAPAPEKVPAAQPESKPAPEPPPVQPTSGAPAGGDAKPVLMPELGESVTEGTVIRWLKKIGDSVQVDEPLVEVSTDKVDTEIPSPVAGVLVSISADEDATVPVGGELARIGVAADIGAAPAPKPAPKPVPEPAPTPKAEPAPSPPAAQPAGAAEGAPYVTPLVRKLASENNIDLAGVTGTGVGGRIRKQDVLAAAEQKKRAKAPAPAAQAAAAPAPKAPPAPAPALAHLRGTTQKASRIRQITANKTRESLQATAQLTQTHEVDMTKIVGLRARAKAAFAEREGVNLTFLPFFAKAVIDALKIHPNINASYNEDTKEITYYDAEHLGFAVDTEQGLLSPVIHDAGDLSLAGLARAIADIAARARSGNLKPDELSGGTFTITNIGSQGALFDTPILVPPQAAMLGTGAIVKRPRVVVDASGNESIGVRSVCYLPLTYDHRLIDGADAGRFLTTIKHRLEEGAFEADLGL
Test: DlaT inhibition (Dlat IC50); DTNB peroxidase assay with Lpd, DlaT and AhpD
Type: biochemical

[1] = Table 1, Compounds A1 to A294, read-out: Dlat IC50 category
[2] = Dlat IC50 category, Table 7, Compounds G1 to G4

NS(=O)(=O)c1ccc(N2C(=O)C(=Cc3ccc(-c4ccc(Cc5ccccc5)cc4)o3)SC2=S)cc1 [Compound A12]
pIC50 [1]: 4.40 to 4.96

COc1ccc(C)cc1-c1ccc(C=C2SC(=S)N(c3cccc(C(=O)O)c3)C2=O)o1 [Compound A253]
pIC50 [1]: > 5.00

O=C(O)c1cc(N2C(=O)C(=Cc3ccc(-c4ccc(Cl)cc4)o3)SC2=S)cc(C(F)(F)F)c1 [Compound A223]
pIC50 [1]: 4.40 to 4.96

Cc1ccc(-c2ccc(C=C3SC(=S)N(c4ccc(F)c(C(=O)O)c4)C3=O)o2)cc1 [Compound A260]
pIC50 [1]: > 5.00

O=C(O)CCCCCN1C(=O)C(=Cc2ccc(-c3ccccc3Cl)o2)SC1=S [Compound B11]
pIC50 (Dlat IC50 category): > 5.00

O=C(O)c1cccc(N2C(=O)C(=Cc3ccc(-c4cc(C(F)(F)F)ccc4Cl)o3)SC2=S)c1 [Compound A44]
pIC50 [1]: > 5.00

O=C(O)C1CCCC(N2C(=O)C(=Cc3ccc(-c4ccc(F)cc4)o3)SC2=S)C1 (stereo not drawn) [Compound C43, 3-{5-[1-[5-(4-fluoro-phenyl)-furan-2-yl]-methylidene]-4-oxo-2-thioxo-thiazolidin-3-yl}-cyclohexanecarboxylic acid]
pIC50 (Dlat IC50 category): > 5.00

O=C(O)c1cccc(N2C(=O)C(=Cc3ccc(-c4ccc(C(F)(F)F)cc4)o3)SC2=S)c1 [Compound A200]
pIC50 [1]: > 5.00

CC(C)c1cccc(-c2ccc(C=C3SC(=S)N(c4ccc(O)c(C(=O)O)c4)C3=O)o2)c1 [Compound A61]
pIC50 [1]: > 5.00

O=C(O)c1cc(N2C(=O)C(=Cc3ccc(-c4ccccc4Oc4ccccc4)o3)SC2=S)ccc1F [Compound A283]
pIC50 [1]: > 5.00

CCCc1ccc(-c2ccc(C=C3SC(=S)N(C4CCC(C(=O)O)CC4)C3=O)o2)cc1 (stereo not drawn) [Compound C80, 4-{5-[1-[5-(4-propyl-phenyl)-furan-2-yl]-methylidene]-4-oxo-2-thioxo-thiazolidin-3-yl}-cyclohexanecarboxylic acid]
pIC50 (Dlat IC50 category): 4.40 to 4.96

O=C(O)c1ccc(-c2ccc(C=C3SC(=S)N(c4ccccc4)C3=O)o2)cc1O [Compound A289]
pIC50 [1]: > 5.00

COc1ccc(-c2ccc(C=C3SC(=S)N(c4cc(C(=O)O)ccc4F)C3=O)o2)c(C)c1 [Compound A160]
pIC50 [1]: > 5.00

O=C(O)CCCCCN1C(=O)C(=Cc2ccc(-c3ccc(Cl)c(Cl)c3)o2)SC1=S [Compound B14]
pIC50 (Dlat IC50 category): > 5.00

CC(=O)Nc1ccc(-c2ccc(C=C3SC(=S)N(Nc4ccccc4C(=O)O)C3=O)o2)cc1 [Compound D41, 2-{5-[5-(4-acetylamino-phenyl)-furan-2-ylmethylene]-4-oxo-2-thioxo-thiazolidin-3-ylamino}-benzoic acid]
pIC50 (Dlat IC50 category): > 5.00

O=C(O)c1cccc(NN2C(=O)C(=Cc3ccc(-c4ccc(Cl)cc4)o3)SC2=S)c1 [Compound D18, 3-{5-[1-[5-(4-chloro-phenyl)-furan-2-yl]-methylidene]-4-oxo-2-thioxo-thiazolidin-3-ylamino}-benzoic acid]
pIC50 (Dlat IC50 category): > 5.00

O=C(O)c1cc(N2C(=O)C(=Cc3ccc(-c4ccc(Cl)cc4)o3)SC2=S)ccc1Cl [Compound A68]
pIC50 [1]: > 5.00

O=C(O)C1CCCC(N2C(=O)C(=Cc3ccc(-c4ccccc4F)s3)SC2=S)C1 (stereo not drawn) [Compound C35, 3-{5-[1-[5-(2-fluoro-phenyl)-thiophen-2-yl]-methylidene]-4-oxo-2-thioxo-thiazolidin-3-yl}-cyclohexanecarboxylic acid]
pIC50 (Dlat IC50 category): 4.40 to 4.96

CN(C)S(=O)(=O)c1ccc(-c2ccc(C=C3SC(=S)N(C4CCCC(C(=O)O)C4)C3=O)o2)cc1 (stereo not drawn) [Compound C85, 3-{5-[5-(4-Dimethylsulfamoyl-phenyl)-furan-2-ylmethylene]-4-oxo-2-thioxo-thiazolidin-3-yl}-cyclohexanecarboxylic acid]
pIC50 (Dlat IC50 category): 4.10 to 4.39

CC(=O)Nc1ccc(-c2ccc(C=C3SC(=S)N(C4CCC(C(=O)O)CC4)C3=O)o2)cc1 (stereo not drawn) [Compound C76, 4-{5-[1-[5-(4-acetylamino-phenyl)-furan-2-yl]-methylidene]-4-oxo-2-thioxo-thiazolidin-3-yl}-cyclohexanecarboxylic acid]
pIC50 (Dlat IC50 category): > 5.00

Cc1ccc(-c2ccc(C=C3SC(=S)N(Nc4ccccc4C(=O)O)C3=O)o2)c(C)c1 [Compound D8, 2-{5-[1-[5-(2,4-dimethyl-phenyl)-furan-2-yl]-methylidene]-4-oxo-2-thioxo-thiazolidin-3-ylamino}-benzoic acid]
pIC50 (Dlat IC50 category): > 5.00

O=C(O)c1ccccc1NN1C(=O)C(=Cc2ccc(-c3ccc4[nH]ccc4c3)o2)SC1=S [Compound D22, 2-{5-[5-(1H-Indol-5-yl)-furan-2-ylmethylene]-4-oxo-2-thioxo-thiazolidin-3-ylamino}-benzoic acid]
pIC50 (Dlat IC50 category): > 5.00

CC(=O)NS(=O)(=O)c1cccc(N2C(=O)C(=Cc3ccc(-c4cccc(C(F)(F)F)c4)o3)SC2=S)c1 [Compound A38]
pIC50 [1]: > 5.00

CS(=O)(=O)c1ccc(-c2ccc(C=C3SC(=S)N(c4cccc(C(=O)O)c4)C3=O)o2)cc1 [Compound A228]
pIC50 [1]: > 5.00

N#Cc1c(F)cccc1-c1ccc(C=C2SC(=S)N(C(C(=O)O)c3ccccc3)C2=O)o1 (stereo not drawn) [Compound B89]
pIC50 (Dlat IC50 category): 4.40 to 4.96

O=C(O)c1cccc(CCN2C(=O)C(=Cc3ccc(-c4cc(C(F)(F)F)ccc4Cl)o3)SC2=S)c1 [Compound G3]
pIC50 [2]: > 5.00

O=C(O)c1cccc(N2C(=O)C(=Cc3ccc(-c4cc5ccccc5s4)o3)SC2=S)c1 [Compound I1]
pIC50 (Dlat IC50 category): > 5.00

O=C(O)c1cc(C(=O)O)cc(N2C(=O)C(=Cc3ccc(-c4ccc(Cl)cc4)o3)SC2=S)c1 [Compound A232]
pIC50 [1]: 4.40 to 4.96

Cc1c(C(=O)O)cccc1N1C(=O)C(=Cc2ccc(-c3ccc(C4CCCCC4)cc3)o2)SC1=S [Compound A83]
pIC50 [1]: > 5.00

O=C(O)C(Cc1ccccc1)N1C(=O)C(=Cc2ccc(-c3ccc(Cl)cc3)o2)SC1=S (stereo not drawn) [Compound B42]
pIC50 (Dlat IC50 category): > 5.00

O=C(O)c1ccc(F)c(N2C(=O)C(=Cc3nc(-c4ccccc4)cs3)SC2=S)c1 [Compound A252]
pIC50 [1]: 4.40 to 4.96

O=C(O)CN1C(=O)C(=Cc2ccc(-c3cc(C(F)(F)F)ccc3Cl)o2)SC1=S [Compound B61]
pIC50 (Dlat IC50 category): > 5.00

O=C(O)C(Cc1ccc(O)cc1)N1C(=O)C(=Cc2ccc(-c3ccc(Cl)cc3)o2)SC1=S (stereo not drawn) [Compound B53]
pIC50 (Dlat IC50 category): > 5.00

O=C(O)C(c1ccccc1)N1C(=O)C(=Cc2ccc(-c3cccc(C(F)(F)F)c3)o2)SC1=S (stereo not drawn) [Compound B50]
pIC50 (Dlat IC50 category): > 5.00

O=C(O)c1cccc(N2C(=O)C(=Cc3ccc(-c4ccc(C(=O)O)c(O)c4)o3)SC2=S)c1 [Compound A115]
pIC50 [1]: 4.40 to 4.96

Cc1cc(F)ccc1-c1ccc(C=C2SC(=S)N(c3cccc(C(=O)O)c3)C2=O)o1 [Compound A148]
pIC50 [1]: > 5.00

COc1ccccc1-c1ccc(C=C2SC(=S)N(c3cc(C(=O)O)ccc3C)C2=O)o1 [Compound A141]
pIC50 [1]: > 5.00

Cc1cc(N(C)C)ccc1-c1ccc(C=C2SC(=S)N(Nc3ccccc3C(=O)O)C2=O)o1 [Compound D29, 2-{5-[5-(4-Dimethylamino-2-methyl-phenyl)-furan-2-ylmethylene]-4-oxo-2-thioxo-thiazolidin-3-ylamino}-benzoic acid]
pIC50 (Dlat IC50 category): 4.40 to 4.96

O=C(O)C1CCC(N2C(=O)C(=Cc3ccc(-c4ccccc4Cl)o3)SC2=S)CC1 (stereo not drawn) [Compound C16, 4-{5-[1-[5-(2-chloro-phenyl)-furan-2-yl]-methylidene]-4-oxo-2-thioxo-thiazolidin-3-yl}-cyclohexanecarboxylic acid]
pIC50 (Dlat IC50 category): > 5.00

O=C(O)c1cc(N2C(=O)C(=Cc3ccc(Cc4ccccc4Cl)o3)SC2=S)ccc1O [Compound N3]
pIC50 (Dlat IC50 category, Table 14, Compounds N1 to N3): > 5.00

CC(C)Cc1ccc(-c2ccc(C=C3SC(=S)N(c4cc(C(=O)O)ccc4Cl)C3=O)o2)cc1 [Compound A92]
pIC50 [1]: > 5.00

O=C(O)c1cccc(CCN2C(=O)C(=Cc3ccc(-c4cc(Cl)ccc4Cl)o3)SC2=S)c1 [Compound G4]
pIC50 [2]: > 5.00

O=C(O)c1ccccc1NN1C(=O)C(=Cc2ccc(-c3ccccc3OCc3ccccc3)o2)SC1=S [Compound D27, 2-{5-[1-[5-(2-benzyloxy-phenyl)-furan-2-yl]-methylidene]-4-oxo-2-thioxo-thiazolidin-3-ylamino}-benzoic acid]
pIC50 (Dlat IC50 category): 4.40 to 4.96

O=C(NC(CO)CO)c1cccc(N2C(=O)C(=Cc3ccc(-c4ccccc4Cl)o3)SC2=S)c1 [Compound T7, 3-{5-[1-[5-(2-Chloro-phenyl)-furan-2-yl]-methylidene]-4-oxo-2-thioxo-thiazolidin-3-yl}-N-(2-hydroxy-1-hydroxymethyl-ethyl)-benzamide]
pIC50 (Dlat IC50 category, Table 20, Prodrugs (Compounds T1 to T8)): 4.40 to 4.96

O=C(O)c1cc(N2C(=O)C(=Cc3ccc(-c4ccc(F)cc4)o3)SC2=S)ccc1F [Compound A259]
pIC50 [1]: 4.40 to 4.96

CSc1ccc(-c2ccc(C=C3SC(=S)N(C4CCCC(C(=O)OCCN(CCO)CCO)C4)C3=O)o2)cc1 (stereo not drawn) [Compound U10, 3-{5-[1-[5-(4-Methylsulfanyl-phenyl)-furan-2-yl]-methylidene]-4-oxo-2-thioxo-thiazolidin-3-yl}-cyclohexanecarboxylic acid 2-[bis-(2-hydroxy-ethyl)-amino]-ethyl ester hydrochloride]
pIC50 (Dlat IC50 category, Table 21, Prodrugs (Examples U1 to U10)): > 5.00

CSc1ccc(-c2ccc(C=C3SC(=S)N(C4CCCC(C(=O)O)C4)C3=O)o2)cc1 (stereo not drawn) [Compound C64, 3-{5-[1-[5-(4-methylsulfanyl-phenyl)-furan-2-yl]-methylidene]-4-oxo-2-thioxo-thiazolidin-3-yl}-cyclohexanecarboxylic acid]
pIC50 (Dlat IC50 category): > 5.00

O=C(O)C(c1ccccc1)N1C(=O)C(=Cc2cccc(-c3ccc(Cl)s3)n2)SC1=S (stereo not drawn) [Compound P1]
pIC50 (Dlat IC50 category, Table 16, Compounds P1 to P2): > 5.00
